The text below walks through data of patent publication US8614205B2, “Glutamate receptor modulators and therapeutic agents” (priority 2009, dated 2013).

Structures are written as SMILES. “And” between values parts separate entries of the source, which are not always exact repeats. Identical values can stand only once. Like-named read-outs stand apart in the source and are kept apart here.

Assay [1] deals with T1, mGluR1 (Homo sapiens, UniProt Q13255).
T1 construct: expression induced with doxycycline
Description: aequorin calcium assay, negative allosteric modulation of mGluR1. Format: cell-based. As to conditions: aequorin assay, agonist at EC80; 10000 = no activity observed at 10,000 nM. As to the method:
(§1) The ability of test compound to ameliorate the efflux of calcium cations (Ca^++) in the presence of agonist (glutamate or quisqualate) is measured by detection of light emitted by the luminescent protein aequorin triggered by binding of Ca^++. Aequorin is a photoprotein isolated from luminescent jellyfish (like various Aequorea species e.g. Aequorea victoria). Aequorin is composed of two distinct units, the apoprotein apoaequorin, with an approximate molecular weight of 22 kDa, and the prosthetic group, coelenterazine, responsible for emission of light. In the presence of molecular oxygen the two components of aequorin assemble spontaneously, forming the functional protein. Four EF-hand type regions have been identified in the structure of Aequorin and at least 3 of them function as binding sites for Ca+2 ions: Ca+2 binding to these EF hands triggers a conformational change of the protein, that leads it to oxidize its prosthetic group, coelenterazine, into excited coelenteramide and CO2. As the excited coelenteramide relaxes to the ground state, blue light (wavelength=469 nm) is emitted and can be measured by a luminometer. Negative allosteric modulator activity of test compound is expressed as a percentage of the stimulation of reference agonist (glutamate) activity at its EC80 concentration. Assay of Compounds was performed at Euroscreen SA, Gosselies, Belgium.
(§2) Cells stably transfected with mGlu1 or mGlu5 were grown 18 hours prior to the test in culture medium containing 600 ng/ml doxycycline, then were detached by gentle flushing with PBS-EDTA, recovered by centrifugation and resuspended in “assay buffer” (HBSS, 2.1 mM CaCl2, 3 μg/ml GPT (Glutamate-Pyruvate transaminase), 4 mM MEM Sodium Pyruvate, 0.1% BSA, protease free). Cells were incubated at room temperature for at least 4 h with coelenterazine-h. Dose response curves were performed using mGluR1 cells with the orthosteric agonist glutamate and negative allosteric modulator JNJ16259685. Dose response curves were performed using mGluR5 cells with the orthosteric agonist glutamate and negative allosteric modulator MPEP. For agonist testing, 30 μl of cell suspension were mixed with 30 μl of test compound or reference agonist in a 384-well plate. The resulting emission of light was recorded using the Hamamatsu Functional Drug Screening System 6000 (FDSS 6000). For negative allosteric modulator testing, 60 μl of the resulting cell suspension containing the test compound was mixed with 30 μl of the reference agonist at EC80 following an incubation of 3 min after the first injection. The resulting emission of light was recorded using FDSS 6000. […] Plates also contained the reference agonist at a concentration equivalent to the EC80 obtained during the test validation. Negative allosteric modulator activity of test compound was expressed as a percentage of the stimulation of reference agonist activity at its EC80 concentration.

Another assay addresses T2, mGluR5 (Homo sapiens, UniProt P41594).
T2 construct: expression induced with doxycycline
Nature of the assay: aequorin calcium assay, negative allosteric modulation of mGluR5. Format: cell-based. As for the experimental part: as §1, §2

In assay [2] the test system is hyperalgesia in partial sciatic nerve ligation rat. Description: partial sciatic nerve ligation (PSN) model of neuropathic pain, paw withdrawal method. It is filed as in vivo. Set-up: AUC (0-5): unit not given beside the values. As to conditions: for % MPE (0-100) 1 hr / Paw withdrawal thresholds (g; raw data) 1 hr / Raw MPE (%) 1 hr / % MPE (0-100) 3 hrs / Paw withdrawal thresholds (g; raw data) 3 hrs / Raw MPE (%) 3 hrs / % MPE (0-100) 5 hrs / Paw withdrawal thresholds (g; raw data) 5 hrs / Raw MPE (%) 5 hrs / % MPE (0-100) 24 hrs / Paw withdrawal thresholds (g; raw data) 24 hrs / Raw MPE (%) 24 hrs / AUC (0-5): PSN Sx rat. As for the experimental part: Briefly, under gas anesthesia, the skin and muscles of the thigh were reflected to expose the sciatic nerve. About one-third to one-half of the cross-sectional area of the nerve was tightly ligated using a 7-0 nylon suture. The incision was closed in layers (suture for muscle, surgical adhesive for skin). […] Treated rats were assayed at 1, 3, 5, and 24 hr using the paw withdrawal method (L. Randall and J. Selitto, 1957, Arch. Int. Pharmacodynam., 111:409-19). […] The Partial sciatic nerve ligation assay was performed at Eurofins/Product Safety Laboratories (Dayton, N.J.).
Animals were housed in cages which conform to the size recommendations in the most recent NIH Guide for the Care and Use of Laboratory Animals. […] The animals were fed Purina Rodent Chow #5012. The animals were acclimated to the facility for 7 days prior to the study. A pre-operative baseline paw withdrawal measure was collected for all rats. […] After recovery, a pre-dosing baseline paw withdrawal threshold was collected for all rats. […] Rats were lightly anesthetized and treated with test article or vehicle. Paw withdrawal thresholds were determined at one, three, five, and 24 hours post dosing. […] Briefly, under gas anesthesia, the skin and muscles of the thigh were reflected to expose the sciatic nerve. About one third to one half of the cross-sectional area of the nerve was tightly ligated using a 7-0 nylon suture. The incision was closed in layers (suture for muscle, surgical adhesive for skin). Test article or vehicle was administered by transcutaneous injection (C. Mestre et al., 1994, J. Pharm. Tox. Meth., 32:197-200). Briefly, the rat was lightly anesthetized and placed to flex the lower lumbar vertebrae. After palpating the vertebral processes, a 26 gauge needle was inserted through a vertebral interspace. The presence of a tail flick was considered validation of the needle placement; the solution was then injected. Paw withdrawal thresholds were assessed using a paw pressure device (L. O. Randall & J. J. Selitto, 1957, Arch. Int. Pharmacodyn., 111:409-19). The behavioral endpoint was defined as paw withdrawal. Data was analyzed by two-way analysis of variance (repeated measures) with Bonferroni tests at individual time points. Paw withdrawal threshold raw values were used for the analysis, and each route of administration was analyzed separately. Vehicle-treated groups were used as the statistical comparison groups.

The target in assay [3] is T1, mGluR1. Description: aequorin calcium assay, negative allosteric modulation of mGluR1. It is filed as cell-based. The following applies: thiazole derivatives of benzamide, in vitro activity; read-out: binding at mGluR1.
Where [4] appears, read: 10 μg intrathecal, group Average (N 6).
Setting [5] is: 10 μg intrathecal, individual rat, listed as SND 121.
Setting [6] is: 49 μg intrathecal, group Average (N 6).
Setting [7] is: 49 μg intrathecal, individual rat, listed as SND 121.
[8] abbreviates: thiazole derivatives of benzamide, in vitro activity, read-out: binding at mGluR5.

T2 sequence (P41594 21-1212): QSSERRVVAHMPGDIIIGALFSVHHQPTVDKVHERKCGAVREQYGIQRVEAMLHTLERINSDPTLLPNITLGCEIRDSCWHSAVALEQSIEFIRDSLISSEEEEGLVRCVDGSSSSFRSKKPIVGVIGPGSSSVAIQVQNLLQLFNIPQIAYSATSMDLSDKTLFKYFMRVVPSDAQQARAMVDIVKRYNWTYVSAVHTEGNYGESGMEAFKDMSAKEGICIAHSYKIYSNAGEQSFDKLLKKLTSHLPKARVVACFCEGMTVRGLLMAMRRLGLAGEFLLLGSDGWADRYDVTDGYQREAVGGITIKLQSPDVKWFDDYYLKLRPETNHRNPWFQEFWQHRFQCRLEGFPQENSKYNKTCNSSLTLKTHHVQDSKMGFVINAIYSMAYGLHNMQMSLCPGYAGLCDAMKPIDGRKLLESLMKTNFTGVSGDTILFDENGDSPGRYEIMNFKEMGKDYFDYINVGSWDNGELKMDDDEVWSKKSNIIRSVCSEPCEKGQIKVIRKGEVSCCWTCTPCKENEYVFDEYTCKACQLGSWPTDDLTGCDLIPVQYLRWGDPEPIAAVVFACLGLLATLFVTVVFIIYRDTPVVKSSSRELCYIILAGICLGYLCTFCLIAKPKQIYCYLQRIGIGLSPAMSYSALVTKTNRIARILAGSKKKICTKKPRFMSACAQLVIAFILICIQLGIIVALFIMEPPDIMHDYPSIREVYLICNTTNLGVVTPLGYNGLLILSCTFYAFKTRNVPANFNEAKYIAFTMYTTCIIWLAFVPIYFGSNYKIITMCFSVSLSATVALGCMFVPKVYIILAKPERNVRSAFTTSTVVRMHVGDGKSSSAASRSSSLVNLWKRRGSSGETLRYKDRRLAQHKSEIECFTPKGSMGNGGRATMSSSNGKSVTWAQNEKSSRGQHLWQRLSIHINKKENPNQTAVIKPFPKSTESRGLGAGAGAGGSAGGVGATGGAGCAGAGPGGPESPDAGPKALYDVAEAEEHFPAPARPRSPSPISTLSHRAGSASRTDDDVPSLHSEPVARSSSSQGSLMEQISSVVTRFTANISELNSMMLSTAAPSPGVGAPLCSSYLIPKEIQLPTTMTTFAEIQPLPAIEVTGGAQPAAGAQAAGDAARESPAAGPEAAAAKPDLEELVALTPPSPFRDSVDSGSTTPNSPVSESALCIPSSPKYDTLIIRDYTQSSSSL
T1 sequence (Q13255 19-1194): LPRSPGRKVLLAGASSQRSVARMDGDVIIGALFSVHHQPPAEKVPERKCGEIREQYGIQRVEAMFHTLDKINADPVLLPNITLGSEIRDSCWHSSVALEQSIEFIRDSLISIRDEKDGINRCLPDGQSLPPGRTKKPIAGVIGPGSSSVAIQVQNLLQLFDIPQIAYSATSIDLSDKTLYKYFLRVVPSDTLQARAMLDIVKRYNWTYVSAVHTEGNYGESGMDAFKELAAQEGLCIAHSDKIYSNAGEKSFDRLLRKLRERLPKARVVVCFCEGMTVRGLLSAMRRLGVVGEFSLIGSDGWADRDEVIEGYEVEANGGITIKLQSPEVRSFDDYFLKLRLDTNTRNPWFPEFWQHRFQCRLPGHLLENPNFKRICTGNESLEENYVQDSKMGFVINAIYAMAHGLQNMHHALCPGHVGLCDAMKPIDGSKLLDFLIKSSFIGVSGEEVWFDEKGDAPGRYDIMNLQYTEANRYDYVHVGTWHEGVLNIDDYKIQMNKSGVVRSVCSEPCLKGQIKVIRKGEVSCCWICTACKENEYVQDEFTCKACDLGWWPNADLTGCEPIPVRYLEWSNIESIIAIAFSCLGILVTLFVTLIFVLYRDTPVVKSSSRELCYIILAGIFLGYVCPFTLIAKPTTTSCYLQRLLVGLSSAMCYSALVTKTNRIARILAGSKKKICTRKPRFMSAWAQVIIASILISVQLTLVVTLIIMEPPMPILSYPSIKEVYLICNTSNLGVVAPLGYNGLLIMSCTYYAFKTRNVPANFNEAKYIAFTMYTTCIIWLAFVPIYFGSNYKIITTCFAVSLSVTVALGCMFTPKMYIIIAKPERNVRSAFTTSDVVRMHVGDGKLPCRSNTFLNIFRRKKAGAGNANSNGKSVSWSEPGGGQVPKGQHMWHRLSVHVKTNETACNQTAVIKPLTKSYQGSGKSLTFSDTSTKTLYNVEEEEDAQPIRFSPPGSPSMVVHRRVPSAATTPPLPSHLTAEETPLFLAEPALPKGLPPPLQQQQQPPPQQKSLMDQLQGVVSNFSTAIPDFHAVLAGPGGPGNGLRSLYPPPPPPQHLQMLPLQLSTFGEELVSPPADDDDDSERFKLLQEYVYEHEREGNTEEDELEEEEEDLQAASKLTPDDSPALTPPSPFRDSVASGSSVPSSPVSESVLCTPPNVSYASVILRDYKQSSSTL

On to `O=C(Nc1ccc([N+](=O)[O-])cc1Cl)c1cc(Cl)ccc1O` [Compound 1, 5-Chloro-N-(2-chloro-4-nitrophenyl)-2-hydroxybenzamide], for which, at mGluR1 [1], the EC50 was 0.038 µM. Further, on mGluR5 (aequorin assay, agonist at EC80, 10000 = no activity observed at 10,000 nM, read-out: mGluR5 EC50), the EC50 was 0.062 µM. In addition, in assay [2] (setting [4]), the “% MPE (0-100) 1 hr” value was 29.7%, the “Paw withdrawal thresholds (g; raw data) 1 hr” value stood at 125.8 g, the “Raw MPE (%) 1 hr” value was found to be 31.3% and the “% MPE (0-100) 3 hrs” value is recorded as 39.9%. In assay [2] (setting [4]), the “Paw withdrawal thresholds (g; raw data) 3 hrs” value is given as 130.0 g, the “Raw MPE (%) 3 hrs” value is listed as 41.8%, the “% MPE (0-100) 5 hrs” value is 34.7% and the “Paw withdrawal thresholds (g; raw data) 5 hrs” value was found to be 122.5 g. In assay [2] (setting [4]), the “Raw MPE (%) 5 hrs” value was determined as 33.6%, the “% MPE (0-100) 24 hrs” value worked out at 28.6%, the “Paw withdrawal thresholds (g; raw data) 24 hrs” value is reported as 117.5 g and the “Raw MPE (%) 24 hrs” value came out at 33.9%. The “AUC (0-5)” value in assay [2] (setting [4]) was found to be 159.1. In addition, in assay [2] (setting [5]), the “% MPE (0-100) 1 hr” value is 0.0% (3×) and 6.7% and 100.0% and 71.5%; the “Paw withdrawal thresholds (g; raw data) 1 hr” value was 90 g (2×) and 60 g and 105 g and 250 g and 160 g; the “Raw MPE (%) 1 hr” value is −10.9% (2×) and 6.7% and 177.6% and 71.5%; the “% MPE (0-100) 3 hrs” value was 41.8% and 27.5% and 0.0% (2×) and 100.0% and 70.3%. Besides, in assay [2] (setting [5]), the “Paw withdrawal thresholds (g; raw data) 3 hrs” value was 130 g and 120 g and 100 g (2×) and 180 g and 150 g; the “Raw MPE (%) 3 hrs” value is 41.8% and 27.5% and −1.0% (2×) and 113.1% and 70.3%; the “% MPE (0-100) 5 hrs” value is 30.3% (2×) and 0.0% and 43.6% and 100.0% and 3.8%; the “Paw withdrawal thresholds (g; raw data) 5 hrs” value was 120 g (2×) and 70 g and 130 g and 195 g and 100 g. In assay [2] (setting [5]), the “Raw MPE (%) 5 hrs” value is 30.3% (2×) and −36.0% and 43.6% and 129.9% and 3.8%; the “% MPE (0-100) 24 hrs” value is 44.5% and 16.2% and 2.0% and 9.1% and 100.0% and 0.0%; the “Paw withdrawal thresholds (g; raw data) 24 hrs” value was 125 g and 105 g and 95 g and 100 g and 195 g and 85 g; the “Raw MPE (%) 24 hrs” value is 44.5% and 16.2% and 2.0% and 9.1% and 143.7% and −12.1%. Also, the “AUC (0-5)” value in assay [2] (setting [5]) is 113.9 and 85.3 and 0.0 and 53.7 and 450.0 and 251.7. Moreover, in assay [2] (setting [6]), the “% MPE (0-100) 1 hr” value is given as 80.7%, the “Paw withdrawal thresholds (g; raw data) 1 hr” value stood at 199.2 g, the “Raw MPE (%) 1 hr” value is reported as 117.7% and the “% MPE (0-100) 3 hrs” value is recorded as 54.2%. Moreover, in assay [2] (setting [6]), the “Paw withdrawal thresholds (g; raw data) 3 hrs” value is 163.3 g, the “Raw MPE (%) 3 hrs” value turned out to be 89.3%, the “% MPE (0-100) 5 hrs” value stood at 31.8% and the “Paw withdrawal thresholds (g; raw data) 5 hrs” value was found to be 119.2 g. Moreover, in assay [2] (setting [6]), the “Raw MPE (%) 5 hrs” value was found to be 29.2%, the “% MPE (0-100) 24 hrs” value is recorded as 1.5%, the “Paw withdrawal thresholds (g; raw data) 24 hrs” value is listed as 84.2 g and the “Raw MPE (%) 24 hrs” value is −13.3%. Further, the “AUC (0-5)” value in assay [2] (setting [6]) came out at 261.3. In assay [2] (setting [7]), the “% MPE (0-100) 1 hr” value was 100.0% (4×) and 48.0% and 36.2%; the “Paw withdrawal thresholds (g; raw data) 1 hr” value is 250 g (2×) and 190 g and 140 g and 130 g and 235 g; the “Raw MPE (%) 1 hr” value was 177.6% (2×) and 106.9% and 48.0% and 36.2% and 159.9%; the “% MPE (0-100) 3 hrs” value is 100.0% (2×) and 70.3% and 0.0% and 41.8% and 13.2%. For the same molecule, in assay [2] (setting [7]), the “Paw withdrawal thresholds (g; raw data) 3 hrs” value was 250 g (2×) and 150 g and 90 g and 130 g and 110 g; the “Raw MPE (%) 3 hrs” value is 212.9% (2×) and 70.3% and −15.3% and 41.8% and 13.2%; the “% MPE (0-100) 5 hrs” value was 100.0% and 43.6% (2×) and 3.8% and 0.0% (2×); the “Paw withdrawal thresholds (g; raw data) 5 hrs” value was 180 g and 130 g (2×) and 100 g and 80 g and 95 g. In addition, in assay [2] (setting [7]), the “Raw MPE (%) 5 hrs” value was 110.0% and 43.6% (2×) and 3.8% and −22.7% and −2.8%; the “% MPE (0-100) 24 hrs” value was 0.0% (5×) and 9.1%; the “Paw withdrawal thresholds (g; raw data) 24 hrs” value is 90 g (3×) and 55 g and 100 g and 80 g; the “Raw MPE (%) 24 hrs” value is −5.1% (3×) and −54.6% and 9.1% and −19.2%. Besides, the “AUC (0-5)” value in assay [2] (setting [7]) is 450.0 and 334.2 and 153.8 and 155.5 and 80.8 and 393.6. Also, the “effectiveness in model of hyperalgesia vs 100 μg gabapentin” value in assay [2] (49 μg intrathecal, rat) was “considerably more effective”. For the same molecule, the “reversing hyperalgesia, compared to gabapentin” value in assay [2] (10 or 49 μg intrathecal vs 100 μg gabapentin, rat) is given as “essentially as effective or more effective as gabapentin”.

In the case of `CC(=O)Oc1ccc(Cl)cc1C(=O)Nc1nc([N+](=O)[O-])cs1`, the EC50 at mGluR5 (setting [8]) worked out at 2.76 µM; on mGluR1 [3] it was 6.32 µM.

Regarding `O=C(Nc1nc([N+](=O)[O-])cs1)c1cc(Cl)ccc1O`, the results for the EC50 on mGluR5 (setting [8]) and on mGluR1 [3] were 1.25 µM and 1.76 µM, respectively.
